Assay results taken from article PMC9897788, “Design, synthesis and cytotoxic evaluation of novel bis-thiazole derivatives as preferential Pim1 kinase inhibitors with in vivo and in silico study” (Journal of Enzyme Inhibition and Medicinal Chemistry, 2023).

How the values were obtained:
Test in all cases: NCI 60 cell one-dose screening (SRB)
Format in all cases: cell-based
BT-549 = details: Homo sapiens; BT-549, Breast Cancer; single dose 10 µM, 48 h; read-out: Percentage of cellular growth inhibition
Summary of the method: (§1)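 Inhibition percentages derive from SRB-stained cell mass: growth relative to no-drug wells, computed as (Ti−Tz)/(C−Tz)×100, or (Ti−Tz)/Tz×100 when Ti<Tz, then subtracted from 100. Compound level was 10 µM for 48 h in RPMI 1640 medium with 5% serum.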

CAKI-1 = details: Homo sapiens; CAKI-1, Renal Cancer; single dose 10 µM, 48 h; read-out: Percentage of cellular growth inhibition
Summary of the method: as §1

CCRF-CEM = details: Homo sapiens, Leukemia, single dose 10 µM, 48 h, read-out: Percentage of cellular growth inhibition
Summary of the method: as §1

EKVX = details: Homo sapiens, Non-Small Cell Lung Cancer, single dose 10 µM, 48 h, read-out: Percentage of cellular growth inhibition
Summary of the method: as §1

HCT-15 = details: Homo sapiens; HCT-15, Colon Cancer; single dose 10 µM, 48 h; read-out: Percentage of cellular growth inhibition
Summary of the method: as §1

HL-60(TB) = details: Homo sapiens, Leukemia, single dose 10 µM, 48 h, read-out: Percentage of cellular growth inhibition
Summary of the method: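 Here, 48-h exposure to a single 10 µM concentration was assessed in RPMI 1640 containing 5% FBS. The sulphorhodamine B read-out at 515 nm gave growth versus untreated cells, reported as inhibition (100 − growth %).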

HS 578T = details: Homo sapiens, Breast Cancer, single dose 10 µM, 48 h, read-out: Percentage of cellular growth inhibition
Summary of the method: as §1

HT29 = details: Homo sapiens, HT-29; HT29, Colon Cancer; single dose 10 µM, 48 h; read-out: Percentage of cellular growth inhibition
Summary of the method: as §1

K-562 = details: Homo sapiens, K562; K-562, Leukemia; single dose 10 µM, 48 h; read-out: Percentage of cellular growth inhibition
Summary of the method: as §1

KM12 = details: Homo sapiens; KM12, Colon Cancer; single dose 10 µM, 48 h; read-out: Percentage of cellular growth inhibition
Summary of the method: as §1

MDA-MB-231/ATCC = details: Homo sapiens, Breast Cancer, single dose 10 µM, 48 h, read-out: Percentage of cellular growth inhibition
Summary of the method: as §1

MDA-MB-435 = details: Homo sapiens; MDA-MB-435, Melanoma; single dose 10 µM, 48 h; read-out: Percentage of cellular growth inhibition
Summary of the method: as §1

MDA-MB-468 = details: Homo sapiens; MDA-MB-468, Breast Cancer; single dose 10 µM, 48 h; read-out: Percentage of cellular growth inhibition
Summary of the method: as §1

MOLT-4 = details: Homo sapiens; MOLT-4, Leukemia; single dose 10 µM, 48 h; read-out: Percentage of cellular growth inhibition
Summary of the method: as §1

NCI-H460 = details: Homo sapiens; NCI-H460, Non-Small Cell Lung Cancer; single dose 10 µM, 48 h; read-out: Percentage of cellular growth inhibition
Summary of the method: as §1

OVCAR-8 = details: Homo sapiens; OVCAR-8, Ovarian Cancer; single dose 10 µM, 48 h; read-out: Percentage of cellular growth inhibition
Summary of the method: as §1

PC-3 = details: Homo sapiens; PC-3, Prostate Cancer; single dose 10 µM, 48 h; read-out: Percentage of cellular growth inhibition
Summary of the method: as §1

RPMI-8226 = details: Homo sapiens; RPMI-8226, Leukemia; single dose 10 µM, 48 h; read-out: Percentage of cellular growth inhibition
Summary of the method: as §1

SF-295 = details: Homo sapiens; SF-295, CNS Cancer; single dose 10 µM, 48 h; read-out: Percentage of cellular growth inhibition
Summary of the method: as §1

SN12C = details: Homo sapiens, Renal Cancer, single dose 10 µM, 48 h, read-out: Percentage of cellular growth inhibition
Summary of the method: as §1

SW-620 = details: Homo sapiens; SW-620, Colon Cancer; single dose 10 µM, 48 h; read-out: Percentage of cellular growth inhibition
Summary of the method: as §1

SMILES | inhibition at 10 µM (BT-549) | inhibition at 10 µM (CAKI-1) | inhibition at 10 µM (CCRF-CEM) | inhibition at 10 µM (EKVX) | inhibition at 10 µM (HCT-15) | inhibition at 10 µM (HL-60(TB)) | inhibition at 10 µM (HS 578T) | inhibition at 10 µM (HT29) | inhibition at 10 µM (K-562) | inhibition at 10 µM (KM12) | inhibition at 10 µM (MDA-MB-231/ATCC) | inhibition at 10 µM (MDA-MB-435) | inhibition at 10 µM (MDA-MB-468) | inhibition at 10 µM (MOLT-4) | inhibition at 10 µM (NCI-H460) | inhibition at 10 µM (OVCAR-8) | inhibition at 10 µM (PC-3) | inhibition at 10 µM (RPMI-8226) | inhibition at 10 µM (SF-295) | inhibition at 10 µM (SN12C) | also measured
c1ccc(/N=c2\scc(-c3ccccc3)n2-c2cccc(-n3c(-c4ccccc4)cs/c3=N\c3ccccc3)c2)cc1 [8a, N,N’-(3,3’-(1,3-phenylene)bis(4-phenylthiazole-3(3H)-yl-2(3H)-ylidene))dianiline] | -31.8% | 25.4% | -0.9% | 5.3% | -4.7% | -4.4% | 4.2% | -3.1% | 7.8% | 1.1% | -4.1% | 1% | 9% | -5.5% | -6.3% | -1.5% | 21.8% | -0.5% | -22.4% | 3.9% | inhibition at 10 µM (SW-620): -0.4%
Fc1ccc(-c2cs/c(=N\c3ccccc3)n2-c2cccc(-n3c(-c4ccc(F)cc4)cs/c3=N\c3ccccc3)c2)cc1 [8b, N,N’-(3,3’-(1,3-phenylene)bis(4–(4-fluorophenyl)thiazole-3(3H)-yl-2(3H)-ylidene))dianiline] | -4.1% | 22.2% | 35.2% | 19.5% | 21.7% | 15.8% | 13.4% | 9.9% | 28.8% | 12.8% | 8.9% | 13.1% | 51.2% | 50.1% | 37.5% | 12.4% | 32.1% | 24.2% | -18.8% | 7.5% | inhibition at 10 µM (SW-620): 45.1%
Cc1csc(Nc2cccc(Nc3nc(C)cs3)c2)n1 [3a, N^1,N^3-bis(4-methylthiazol-2-yl)benzene-1,3-diamine] | -24.4% | 23.7% | 1.5% | 14.7% | 7.3% | 18.2% | 7.9% | -6.8% | 17.1% | 5.2% | 21.2% | 4% | 15.9% | 44% | 1.6% | 21.2% | 20.2% | 11.8% | 9.5% | 13.8% | inhibition at 10 µM (SW-620): -3.6%
Cc1nc(Nc2cccc(Nc3nc(C)c(N=Nc4ccccc4)s3)c2)sc1N=Nc1ccccc1 [5a, N^1,N^3-bis(4-methyl-5-(phenyldiazenyl)thiazol-2-yl)benzene-1,3-diamine] | 5.8% | 54.8% | 12.3% | 16.9% | 21% | 5.5% | 19.8% | 2% | 32.9% | 52.1% | 35.1% | 7.9% | 29.4% | 32.6% | 3.2% | 33.4% | -3.3% | -9.4% | 13.6% | 53.9% | inhibition at 10 µM (SW-620): 9.4%
S=C(Nc1ccccc1)Nc1cccc(NC(=S)Nc2ccccc2)c1 [compound 7, 1,1′-(1,3-phenylene)bis(3-phenylthiourea)] | -13.2% | 10.9% | 56.8% | 2.5% | 0.8% | -2.5% | 3.9% | -26.3% | 9.7% | 1% | -0.2% | -2.8% | -8.4% | -5.8% | -16.5% | 4% | -24% | -19.2% | 1.2% | 4.5% | inhibition at 10 µM (SW-620): -16.8%
